Source: patent US11352340B2, “Pyridine and pyridimine compounds as PI3K-gamma inhibitors” (Incyte Corporation, priority 2016, dated 2022)
Where a name gives a salt, the structure may show the parent alone.

What was measured:
[1] = system: Phosphorylated Ribosomal Protein S6 (RPS6) in THP-1 cells; test: THP-1 RPS6 ELISA Assay; assay type: cell-based, Human; conditions: Homo sapiens, MCP-1 stimulated, phospho-RPS6 ELISA, read-out: THP p-RPS6 ELISA IC50
Method: Example A. THP-1 RPS6 ELISA Assay
To measure the Phosphorylated Ribosomal Protein S6 (RPS6) in cell lysates, THP-1 cells (Human Acute Monocytic Leukemia) are purchased from ATCC (Manassas, Va.) and maintained in RPMI with 10% FBS (Gibco/Life Technologies, Carlsbad, Calif.). For the assay, THP-1 cells are serum starved overnight in RPMI, then plated in RPMI (2×10^5 cells/well in 90 μL) into 96-well flat-bottom tissue culture treated plates (Corning, Corning, N.Y.), in the presence or absence of a concentration range of test compounds. Covered plates are incubated for 2 hours at 37° C., 5% CO2 then treated with or without 10 nM MCP-1 (MYBioSource, San Diego, Calif.) for 15 minutes at 37° C., 5% CO2. Plates are centrifuged at 1600 RPM and supernatants are removed. Cells are lysed in Lysis Buffer (Cell Signaling, Danvers, Mass.) with Protease Inhibitor (Calbiochem/EMD, Germany), PMSF (Sigma, St Louis Mo.), HALTS (Thermo Fisher, Rockford, Ill.) for 30 min on wet ice. Cell lysates are frozen at −80° C. before testing. The lysates are tested in the Human/Mouse/Rat Phospho-RPS6 ELISA (R&D Systems, Inc. Minn, Minn.). The plate is measured using a microplate reader (SpectraMax M5—Molecular Devices, LLC Sunnyvale, Calif.) set to 450 nm with a wavelength correction of 540. IC50 determination is performed by fitting the curve of inhibitor percent inhibition versus the log of the inhibitor concentration using the GraphPad Prism 5.0 software.

[2] = molecular target: PI3Kγ (p110γ) Recombinant Human Protein (Homo sapiens (Human), UniProt P48736); test: PI3K-γ Scintillation Proximity Assay; assay type: biochemical; conditions: read-out: PI3K-gamma SPA IC50
PI3Kγ (p110γ) Recombinant Human Protein, sequence (P48736 whole entry): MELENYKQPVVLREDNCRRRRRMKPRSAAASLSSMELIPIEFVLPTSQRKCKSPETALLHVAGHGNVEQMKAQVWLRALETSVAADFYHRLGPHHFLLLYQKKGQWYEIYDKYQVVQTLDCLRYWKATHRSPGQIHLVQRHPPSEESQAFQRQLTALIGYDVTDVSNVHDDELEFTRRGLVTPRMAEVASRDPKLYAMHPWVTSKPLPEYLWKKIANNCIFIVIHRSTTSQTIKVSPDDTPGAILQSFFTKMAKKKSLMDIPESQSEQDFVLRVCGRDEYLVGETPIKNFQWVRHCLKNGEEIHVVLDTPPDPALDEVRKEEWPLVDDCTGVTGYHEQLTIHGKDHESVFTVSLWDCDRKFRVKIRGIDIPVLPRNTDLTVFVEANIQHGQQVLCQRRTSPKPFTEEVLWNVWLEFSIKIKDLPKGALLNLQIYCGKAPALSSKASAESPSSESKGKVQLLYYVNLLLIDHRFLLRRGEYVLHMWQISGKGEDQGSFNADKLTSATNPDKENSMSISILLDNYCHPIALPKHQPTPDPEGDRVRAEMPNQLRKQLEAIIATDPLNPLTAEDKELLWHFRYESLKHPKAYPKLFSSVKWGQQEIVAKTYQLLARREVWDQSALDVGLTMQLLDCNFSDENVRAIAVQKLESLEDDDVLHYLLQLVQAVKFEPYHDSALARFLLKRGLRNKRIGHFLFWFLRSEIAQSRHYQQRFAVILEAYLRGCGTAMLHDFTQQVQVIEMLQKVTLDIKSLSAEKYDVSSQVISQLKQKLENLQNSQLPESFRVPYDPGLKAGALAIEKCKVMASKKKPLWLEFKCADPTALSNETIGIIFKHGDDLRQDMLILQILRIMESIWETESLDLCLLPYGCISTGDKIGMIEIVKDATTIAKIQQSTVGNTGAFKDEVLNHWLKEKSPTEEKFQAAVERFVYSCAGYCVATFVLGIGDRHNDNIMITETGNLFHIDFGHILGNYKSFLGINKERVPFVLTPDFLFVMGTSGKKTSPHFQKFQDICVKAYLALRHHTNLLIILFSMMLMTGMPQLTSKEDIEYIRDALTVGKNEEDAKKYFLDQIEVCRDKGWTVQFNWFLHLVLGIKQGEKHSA
Procedure, shortened: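 Recombinant human p110γ (13 nM) with 20 μM PIP2 and 2 μM ATP plus 0.5 μCi [γ-33P]ATP in 20 mM MOPS pH 6.7, 10 mM MgCl2, 5 mM DTT, 0.03% CHAPS, 2% DMSO, 120 min at room temperature. Product captured on WGA SPA beads and counted; IC50 fitted from % of solvent control versus log concentration.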

[3] = molecular target: PI3Kδ (p110δ/p85α) Recombinant Human Protein (Homo sapiens (Human), UniProt O00329); test: PI3Kδ Scintillation Proximity Assay; assay type: biochemical; conditions: read-out: PI3K-delta SPA IC50
PI3Kδ (p110δ/p85α) Recombinant Human Protein, sequence (O00329 whole entry): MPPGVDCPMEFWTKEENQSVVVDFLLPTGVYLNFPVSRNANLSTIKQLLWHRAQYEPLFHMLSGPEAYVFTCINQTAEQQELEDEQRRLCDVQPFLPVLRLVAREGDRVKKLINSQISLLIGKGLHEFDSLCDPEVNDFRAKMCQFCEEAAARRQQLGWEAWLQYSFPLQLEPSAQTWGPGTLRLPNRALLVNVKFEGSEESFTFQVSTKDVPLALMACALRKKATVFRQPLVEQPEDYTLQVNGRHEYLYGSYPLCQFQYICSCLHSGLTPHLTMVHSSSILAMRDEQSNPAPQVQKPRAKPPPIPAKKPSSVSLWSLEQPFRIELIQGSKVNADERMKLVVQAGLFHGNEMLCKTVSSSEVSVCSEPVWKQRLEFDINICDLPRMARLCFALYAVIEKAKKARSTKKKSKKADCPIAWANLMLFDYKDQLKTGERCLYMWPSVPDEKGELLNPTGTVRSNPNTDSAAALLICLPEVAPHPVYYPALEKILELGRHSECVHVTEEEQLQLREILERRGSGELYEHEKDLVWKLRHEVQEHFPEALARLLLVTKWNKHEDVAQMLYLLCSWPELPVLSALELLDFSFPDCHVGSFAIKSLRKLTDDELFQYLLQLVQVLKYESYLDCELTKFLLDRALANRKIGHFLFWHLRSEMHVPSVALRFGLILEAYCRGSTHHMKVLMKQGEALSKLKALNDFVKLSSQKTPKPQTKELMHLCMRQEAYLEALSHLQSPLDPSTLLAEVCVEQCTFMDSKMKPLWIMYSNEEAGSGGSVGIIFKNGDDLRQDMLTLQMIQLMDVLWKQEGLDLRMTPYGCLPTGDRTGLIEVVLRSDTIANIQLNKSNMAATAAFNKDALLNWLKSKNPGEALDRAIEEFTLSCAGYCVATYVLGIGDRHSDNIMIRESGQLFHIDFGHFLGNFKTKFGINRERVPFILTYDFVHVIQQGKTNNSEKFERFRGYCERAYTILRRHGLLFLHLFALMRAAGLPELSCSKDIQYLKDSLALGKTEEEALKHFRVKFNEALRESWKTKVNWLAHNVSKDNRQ
PI3Kδ (p110δ/p85α) Recombinant Human Protein, sequence (P27986 whole entry partner): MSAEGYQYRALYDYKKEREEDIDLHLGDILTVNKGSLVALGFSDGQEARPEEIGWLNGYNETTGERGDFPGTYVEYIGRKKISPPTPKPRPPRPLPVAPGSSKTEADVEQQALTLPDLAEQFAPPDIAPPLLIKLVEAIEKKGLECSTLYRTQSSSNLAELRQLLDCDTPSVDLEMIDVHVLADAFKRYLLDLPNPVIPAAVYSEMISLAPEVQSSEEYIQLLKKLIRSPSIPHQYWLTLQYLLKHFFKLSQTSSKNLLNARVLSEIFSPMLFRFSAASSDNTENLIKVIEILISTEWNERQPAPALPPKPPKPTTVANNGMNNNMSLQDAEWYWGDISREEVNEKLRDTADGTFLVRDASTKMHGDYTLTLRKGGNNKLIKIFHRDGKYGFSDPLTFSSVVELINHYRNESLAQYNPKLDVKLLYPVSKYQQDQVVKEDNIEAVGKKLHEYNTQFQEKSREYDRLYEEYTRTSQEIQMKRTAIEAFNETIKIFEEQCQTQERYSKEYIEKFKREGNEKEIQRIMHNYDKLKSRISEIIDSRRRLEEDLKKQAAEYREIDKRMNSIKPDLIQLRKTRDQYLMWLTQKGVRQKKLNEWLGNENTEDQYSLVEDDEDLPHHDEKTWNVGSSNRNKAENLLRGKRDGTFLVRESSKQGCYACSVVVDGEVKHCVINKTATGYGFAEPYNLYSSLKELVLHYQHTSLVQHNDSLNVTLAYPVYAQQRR
Procedure, shortened: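 Kinase reaction run at room temperature in 20 mM MOPS pH 6.7, 10 mM MgCl2, 5 mM DTT, 0.03% CHAPS with 20 μM PIP2, 2 μM ATP plus [γ-33P]ATP, 3.4 nM enzyme, 2% DMSO; 120 min. Quenched with WGA SPA beads/EDTA, counted by scintillation; IC50 from % solvent-control activity vs log concentration.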

Row | Compound | IC50 [1] | IC50 [2] | IC50 [3]
1 | O=S(=O)(C1CCCC1)n1cc(-c2ccnc(-c3ncc(-c4ccccc4)[nH]3)c2)cn1 [Example 54, 4-(1-(Cyclopentylsulfonyl)-1H-pyrazol-4-yl)-2-(5-phenyl-1H-imidazol-2-yl)pyridine trifluoroacetate salt] | > 5000 nM | ≤ 100 nM | ≤ 100 nM
2 | N#CCn1cc(-c2ccnc(-c3ncc(-c4ccccc4)[nH]3)c2)cn1 [Example 56, 2-(4-(2-(5-Phenyl-1H-imidazol-2-yl)pyridin-4-yl)-1H-pyrazol-1-yl)acetonitrile trifluoroacetate salt] | ≤ 300 nM | ≤ 100 nM | ≤ 100 nM
3 | CCNc1ncc(-c2cc(-c3cncc(OC)c3)ccn2)[nH]1 [Example 62, N-Ethyl-5-(5-methoxy-3,4′-bipyridin-2′-yl)-1H-imidazol-2-amine Trifluoroacetate Salt] | > 5000 nM | ≤ 100 nM | > 500 nM
4 | CCCCCNc1ncc(-c2cc(-c3cncc(OC)c3)ccn2)[nH]1 [Example 63, 5-(5-Methoxy-3,4′-bipyridin-2′-yl)-N-pentyl-1H-imidazol-2-amine trifluoroacetate salt] | > 5000 nM | ≤ 500 nM | > 500 nM
5 | COc1cncc(-c2ccnc(-c3cnc(NCC4CCC4)[nH]3)c2)c1 [Example 65, N-(Cyclobutylmethyl)-5-(5-methoxy-3,4′-bipyridin-2′-yl)-1H-imidazol-2-amine trifluoroacetate salt] | > 5000 nM | ≤ 500 nM | > 500 nM
6 | CCCCNc1nnc(-c2cc(-c3cncc(OC)c3)ccn2)[nH]1 [Example 66, N-Butyl-5-(5-methoxy-3,4′-bipyridin-2′-yl)-4H-1,2,4-triazol-3-amine Trifluoroacetate Salt] | > 5000 nM | ≤ 500 nM | > 500 nM
7 | COc1cncc(-c2ccnc(-c3nnc(NC(C)C)[nH]3)c2)c1 [Example 67, N-Isopropyl-5-(5-methoxy-3,4′-bipyridin-2′-yl)-4H-1,2,4-triazol-3-amine trifluoroacetate salt] | > 5000 nM | ≤ 500 nM | ≤ 500 nM
8 | CNc1nnc(-c2cc(-c3cncc(OC)c3)ccn2)[nH]1 [Example 68, 5-(5-Methoxy-3,4′-bipyridin-2′-yl)-N-methyl-4H-1,2,4-triazol-3-amine trifluoroacetate salt] | > 5000 nM | ≤ 500 nM | > 500 nM
9 | COc1cncc(-c2ccnc(-c3nnc(Nc4ccccc4)[nH]3)c2)c1 [Example 70, 5-(5-Methoxy-3,4′-bipyridin-2′-yl)-N-phenyl-4H-1,2,4-triazol-3-amine trifluoroacetate salt] | > 5000 nM | ≤ 500 nM | ≤ 500 nM
10 | COc1cncc(-c2ccnc(-c3nnc(-c4ccccc4)[nH]3)c2)c1 [Example 71, 5-Methoxy-2′-(5-phenyl-4H-1,2,4-triazol-3-yl)-3,4′-bipyridine] | > 5000 nM | ≤ 500 nM | ≤ 500 nM
11 | COc1cncc(-c2ccnc(-c3cnc(-c4ccccc4)[nH]3)c2)c1 [Example 74, 5-Methoxy-2′-(2-phenyl-1H-imidazol-5-yl)-3,4′-bipyridine] | > 5000 nM | ≤ 50 nM | ≤ 50 nM
12 | COc1cncc(-c2ccnc(-c3nc(C)c(C)[nH]3)c2)c1 [Example 76, 2′-(4,5-Dimethyl-1H-imidazol-2-yl)-5-methoxy-3,4′-bipyridine] | 300 to 1000 nM | ≤ 50 nM | ≤ 100 nM
13 | COc1cncc(-c2ccnc(-c3ncc(C)[nH]3)c2)c1 [Example 77, 5-Methoxy-2′-(5-methyl-1H-imidazol-2-yl)-3,4′-bipyridine] | 300 to 1000 nM | ≤ 50 nM | ≤ 500 nM
14 | COc1cncc(-c2ccnc(-c3ncc(C(F)(F)F)[nH]3)c2)c1 [Example 79, 5-Methoxy-2′-(5-(trifluoromethyl)-1H-imidazol-2-yl)-3,4′-bipyridine trifluoroacetate salt] | > 5000 nM | ≤ 50 nM | ≤ 500 nM
15 | COc1cncc(-c2ccnc(-c3nc(C)c(-c4ccccc4)[nH]3)c2)c1 [Example 82, 5-Methoxy-2′-(4-methyl-5-phenyl-1H-imidazol-2-yl)-3,4′-bipyridine trifluoroacetate salt] | > 5000 nM | ≤ 50 nM | ≤ 50 nM
16 | COc1cncc(-c2ccnc(-c3ncc(-c4ccc(S(=O)(=O)N(C)C)cc4)[nH]3)c2)c1 [Example 83, 4-(2-(5-Methoxy-3,4′-bipyridin-2′-yl)-1H-imidazol-5-yl)-N,N-dimethylbenzenesulfonamide trifluoroacetate salt] | > 5000 nM | ≤ 50 nM | ≤ 50 nM
17 | COc1cncc(-c2ccnc(-c3ncc(C(C)C)[nH]3)c2)c1 [Example 84, 2′-(5-Isopropyl-1H-imidazol-2-yl)-5-methoxy-3,4′-bipyridine trifluoroacetate salt] | 1000 to 5000 nM | ≤ 100 nM | ≤ 500 nM
18 | CCc1cnc(-c2cc(-c3cncc(OC)c3)ccn2)[nH]1 [Example 85, 2′-(5-Ethyl-1H-imidazol-2-yl)-5-methoxy-3,4′-bipyridine trifluoroacetate salt] | > 5000 nM | ≤ 500 nM | > 500 nM
19 | COc1cncc(-c2ccnc(-c3ncc(C4CC4)[nH]3)c2)c1 [Example 86, 2′-(5-Cyclopropyl-1H-imidazol-2-yl)-5-methoxy-3,4′-bipyridine] | 300 to 1000 nM | ≤ 50 nM | ≤ 500 nM
20 | COc1cncc(-c2ccnc(-c3ncc(-c4ccccn4)[nH]3)c2)c1 [Example 87, 5-Methoxy-2′-(5-(pyridin-2-yl)-1H-imidazol-2-yl)-3,4′-bipyridine trifluoroacetate salt] | > 5000 nM | ≤ 100 nM | ≤ 50 nM
21 | COc1cncc(-c2ccnc(-c3ncc(C(C)(C)C)[nH]3)c2)c1 [Example 88, 2′-(5-tert-Butyl-1H-imidazol-2-yl)-5-methoxy-3,4′-bipyridine trifluoroacetate salt] | > 5000 nM | ≤ 500 nM | ≤ 50 nM
22 | COc1cncc(-c2ccnc(-c3nc4ccccc4[nH]3)n2)c1 [Example 94, 2-[4-(5-Methoxypyridin-3-yl)pyrimidin-2-yl]-1H-benzimidazole Trifluoroacetate Salt] | 1000 to 5000 nM | ≤ 500 nM | > 500 nM
23 | Cc1cnc(-c2cc(-c3cncc(N4CCOCC4)c3)ccn2)[nH]1 [Example 97, 2′-(5-Methyl-1H-imidazol-2-yl)-5-morpholin-4-yl-3,4′-bipyridine] | 300 to 1000 nM | ≤ 50 nM | ≤ 500 nM
24 | Cc1nc(-c2cc(-c3cncc(N4CCOCC4)c3)ccn2)[nH]c1C [Example 98, 4-(2′-(4,5-Dimethyl-1H-imidazol-2-yl)-3,4′-bipyridin-5-yl)morpholine trifluoroacetate salt] | ≤ 300 nM | ≤ 100 nM | ≤ 100 nM
25 | FC(F)(F)c1cnc(-c2cc(-c3cncc(N4CCOCC4)c3)ccn2)[nH]1 [Example 99, 4-(2′-(5-(Trifluoromethyl)-1H-imidazol-2-yl)-3,4′-bipyridin-5-yl)morpholine trifluoroacetate salt] | > 5000 nM | ≤ 50 nM | ≤ 500 nM
26 | c1cc(-c2cncc(N3CCOCC3)c2)cc(-c2ncc(C3CC3)[nH]2)n1 [Example 102, 4-(2′-(5-Cyclopropyl-1H-imidazol-2-yl)-3,4′-bipyridin-5-yl)morpholine trifluoroacetate salt] | 300 to 1000 nM | ≤ 100 nM | ≤ 50 nM
27 | c1cc(-c2cncc(N3CCOCC3)c2)cc(-c2ncc(C3CCC3)[nH]2)n1 [Example 103, 4-(2′-(5-Cyclobutyl-1H-imidazol-2-yl)-3,4′-bipyridin-5-yl)morpholine trifluoroacetate salt] | 1000 to 5000 nM | ≤ 100 nM | ≤ 50 nM
28 | Cc1nc(-c2cc(-c3cncc(N4CCOCC4)c3)ccn2)[nH]c1C1CC1 [Example 104, 4-(2′-(5-Cyclopropyl-4-methyl-1H-imidazol-2-yl)-3,4′-bipyridin-5-yl)morpholine trifluoroacetate salt] | ≤ 300 nM | ≤ 50 nM | ≤ 50 nM
